The values that follow come from EPA's ToxValDB 9.5 (doi:10.2903/j.efsa.2009.213r).

One data set concerns Aphidius rhopalosiphi. Nature of the data set: LR50; higher = less toxic. Conditions: not reported; mortality.
Another data set relates to Typhlodromus pyri. Description: LR50; higher = less toxic. Conditions: not reported; mortality.
A further data set concerns Tagia sp. To be noted: acute; mortality.
The subject of a further data set is Anas platyrhynchos. Conditions: oral, mortality.
Another data set deals with Mus musculus. Conditions: chronic; duration: 2 years; histopathology: nonneoplastic.
The subject of the next data set is Pleurozium sp. To be noted: acute; duration: 72 hours; biomass.
The next data set has as its system Oncorhynchus mykiss. Conditions: mortality.
The subject of a further data set is Apis mellifera. Conditions: acute, duration: 48 hours, mortality.
The subject of the next data set is Rattus norvegicus. Conditions: for NOAEL: histopathology: nonneoplastic.
A further data set relates to Canidae. Conditions: acute; oral; Dog Other; mortality.
A further data set deals with Daphnia magna. To be noted: chronic/long-term; duration: 21 days; reproduction.
The next data set has as its system Oryctolagus sp. To be noted: developmental; development.

For orientation: NOAEL means the highest dose or exposure tested at which no adverse effect was seen.

SMILES strings stand for the structures. ≈ marks a conversion by molar mass, not a printed value.

As to `CCOc1ccc(C(C)(C)COCc2cccc(Oc3ccccc3)c2)cc1` [Etofenprox], the LR50 in the data set on Aphidius rhopalosiphi turned out to be 0.42 g/ha; in the data set on Typhlodromus pyri it was 0.7 g/ha. Further, the LC50 with Tagia sp. was above 47.2 mg/kg; in the data set on Anas platyrhynchos (short-term, feed), above 1280 mg/kg-day; in the data set on Oncorhynchus mykiss (acute, duration: 96 hours), 2.7 ng/mL (≈ 7.17 nM); in the data set with Colinus virginianus (acute, oral, diet, mortality), above 806 mg/kg-day. In addition, the LD50 in the data set on Anas platyrhynchos (acute, unspecified) is above 2000 mg/kg; with Apis mellifera (dermal), 0.015 µg/piece; in the data set on Apis mellifera (oral, unspecified), 0.024 µg/piece; with Rattus norvegicus (acute, oral, mortality) it was above 2000 mg/kg; in the data set with Canidae, above 5000 mg/kg. Also, the NOAEL worked out at 3.1 mg/kg-day with Mus musculus; 3.7 mg/kg-day in the data set on Rattus norvegicus (chronic, duration: 2 years); 20 mg/kg-day in the data set on Rattus norvegicus (subchronic, duration: 13 weeks, oral, diet); 100 mg/kg-day in the data set on Oryctolagus sp.. Further, the NOEC with Pleurozium sp. was found to be 0.15 mg/L; with Oncorhynchus mykiss (chronic/long-term, duration: 21 days), 0.0021 mg/L; in the data set on Daphnia magna, 5.4e-05 mg/L. The compound also came in with an NOEL with Colinus virginianus (reproduction developmental) of 89.6 mg/kg-day.
